Consider eleven molecules from patent US11697650B2, “Compounds having tetrahydroindolizine-1-carboxamide as BCL-2 inhibitors” (Eil Therapeutics, Inc., priority 2021, dated 2023).

In series [1] the target is BCL-2 (Homo sapiens (Human), UniProt P10415). Kind of series: BCL-2 TR-FRET Assay (primary PPI inhibition). It counts as binding. The settings on record: 60 min incubation; read-out: BCL2 (IC50 code, BCL-2 TR-FRET). On the procedure:
BCL-2 TR-FRET Assay (BPS Bioscience, #50222)
The following assay concentrations and times were used: 3 ng BCL-2, 5 μl of 1:100 anti-His Tb-labeled donor, 5 μl of 1:100 Dye-labeled acceptor, 5 μl of 1:40 BCL-2 Peptide Ligand, and 2 ul of test compound, with 60 min incubation time. The results of the assay were read using a Clariostar (BMG Labtech) plate reader with the following parameters: TR FRET, 340ex/620 and 665em; 60 μsec Delay; and 500 μsec integration.
In general terms: In TR-FRET formats the signal depends on donor and acceptor labels being close together.

Series [2] deals with BCL-XL (Homo sapiens (Human), UniProt Q07817). Kind of series: BCL-XL TR-FRET Assay (primary PPI inhibition). It counts as binding. The note with it: 60 min incubation; read-out: BCLxL (IC50 code, BCL-XL TR-FRET). On the procedure:
BCL-XL TR-FRET Assay (BPS Bioscience, #50223)
The following assay concentrations and times were used: 10.5 ng BCL-XL, 5 μl of 1:100 anti-His Tb-labeled donor, 5 μl of 1:100 Dye-labeled acceptor, 5 μl of 1:80 BCL-XL Peptide Ligand, and 2 μl of test compound, with 60 min incubation time. The results of the assay were read using a Clariostar (BMG Labtech) plate reader with the following parameters: TR FRET, 340ex/620 and 665em; 60 μsec Delay; and 500 μsec integration.

In series [3] the test system is RS4-11 cells. Nature of the series: Cell viability assay (CellTiter-Glo), RS4-11. The series is classed as cell-based. The note with it: Homo sapiens, 72 h, 3 days, read-out: RS4-11 (CC50 code). On the procedure:
(§1) Culture medium for HEK293—DMEM (PanEco, Cat #C420) was used. RPMI-1640 (PanEco, Cat #C363) was used for the rest of the cell lines.
(§2) Compounds were prepared as 200× stocks with serial dilution in 100% DMSO with a final concentration of 1×.
(§3) […] were dispersed in 40 μL aliquots in 384-well plates at a concentration of 2000 cells per well for HEK293 and at a concentration of 4000 cells per well for the rest of the cell lines using a robotic station Biomek (Beckman). Before adding compounds, the cells were incubated at 37° C. (HEK293 were incubated for a day before adding compounds).
(§4) A dilution plate was prepared by pouring 78 μL of the appropriate culture medium using a robotic station Biomek (Beckman). Sequentially, using a robotic station, 2 μL of substances were taken and added to 78 μL of culture medium (dilution of compounds 40×). 10 μL aliquots were taken and added to the plates of the cells (dilution of compounds 5×). The plates were incubated for 3 days at a temperature 37° C. After 3 days, 10 μL of CellTiter-Glo (Promega) was added to the cells and the luminescence was measured.
For orientation: Cellular ATP, detected with luciferase, serves as a proxy for viable cell number.

For series [4], the system named is MOLT-4 cells. Nature of the series: Cell viability assay (CellTiter-Glo), MOLT-4. The series is classed as cell-based. The settings on record: Homo sapiens, 72 h, 3 days, read-out: MOLT-4 (CC50 code). On the procedure: as §1, §2, §3, §4
Series [5] can be described thus: Cell viability assay (CellTiter-Glo), HEK293. The series is classed as cell-based. The note with it: human, HEK293 cells, read-out: HEK293 (CC50 code). On the procedure:
as §1, §2, §3, §4

In series [6] the test system is caspase-3 and -7 activities in RS4-11 cells. Nature of the series: Caspase-3/7 activation (Caspase-Glo 3/7) in RS4-11 cells. The series is classed as cell-based. The note with it: Homo sapiens, 3.5 h incubation, read-out: Cas-3/7 (EC50 code). How it is done:
The Caspase-Glo 3/7 Assay is homogeneous, luminescent assay that measures caspase-3 and -7 activities. The assay provides a luminogenic caspase-3/7 substrate, which contains the tetrapeptide sequence DEVD, in a reagent optimized for caspase activity.
Incubate RS4-11 cells with varying concentrations of test compounds for 3.5 h in a humidified incubator at 37° C. and 5% CO2 and 30 min at r.t. Add 15 μl Caspase-Glo reagent to each well and incubate the plate for 30 min at r.t. Read on ClarioStar Plus instrument.
Promega Caspase-Glo (Promega, #8212); Frozen RS4-11 cells; 384-well white plate (Corning, #3570).
ClarioStar Plus; Biomek FX for liquid handling (Beckman Coulter).

Broadly, the IC50 is the concentration that gives 50% inhibition. As a reminder, the CC50 is the concentration that lowers cell viability or growth by half.

Sequence of BCL-2 (P10415 whole entry): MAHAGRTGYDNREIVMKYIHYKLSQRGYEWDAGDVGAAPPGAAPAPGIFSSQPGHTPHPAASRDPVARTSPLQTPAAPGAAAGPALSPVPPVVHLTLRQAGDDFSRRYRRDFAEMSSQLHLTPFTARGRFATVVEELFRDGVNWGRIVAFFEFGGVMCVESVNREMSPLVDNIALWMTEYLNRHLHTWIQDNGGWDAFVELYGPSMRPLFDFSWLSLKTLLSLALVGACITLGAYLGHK
Sequence of BCL-XL (Q07817 whole entry): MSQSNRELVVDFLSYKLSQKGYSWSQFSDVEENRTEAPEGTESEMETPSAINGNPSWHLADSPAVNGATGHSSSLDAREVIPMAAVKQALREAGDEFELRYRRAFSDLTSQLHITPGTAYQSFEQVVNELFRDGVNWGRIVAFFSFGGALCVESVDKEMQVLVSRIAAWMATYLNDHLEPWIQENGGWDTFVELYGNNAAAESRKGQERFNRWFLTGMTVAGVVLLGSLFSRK

`COc1cccc(CN(C(=O)c2cc(-c3cc4c(cc3C(=O)N3Cc5ccccc5C[C@H]3CN3CCOCC3)OCO4)n3c2CCCC3)c2ccc(O)cc2)c1C` [Compound 3, N-(4-hydroxyphenyl)-N-(3-methoxy-2-methylbenzyl)-3-(6-{[(3S)-3-(morpholin-4-ylmethyl)-3,4-dihydroisoquinolin-2(1H)-yl]carbonyl}-1,3-benzodioxol-5-yl)-5,6,7,8-tetrahydroindolizine-1-carboxamide]: the figures for the IC50 in series [1] and in series [2] were not above 0.005 µM and not above 2 µM, respectively. In addition, the CC50 in series [3] is not above 0.1 µM; in series [4] it was not above 2 µM. Besides, the CC50 at 3 days in series [5] is more than 25 µM. Also, the EC50 in series [6] is not above 0.1 µM.
With `Cc1ccccc1CN(C(=O)c1cc(-c2cc3c(cc2C(=O)N2Cc4ccccc4C[C@H]2CN2CCOCC2)OCO3)n2c1CCCC2)c1ccc(O)cc1` [Compound 4, N-(4-hydroxyphenyl)-N-(2-methylbenzyl)-3-(6-{[(3S)-3-(morpholin-4-ylmethyl)-3,4-dihydroisoquinolin-2(1H)-yl]carbonyl}-1,3-benzodioxol-5-yl)-5,6,7,8-tetrahydroindolizine-1-carboxamide], the values for the half-inhibitory concentration (IC50) in series [1] and in series [2] were not above 0.005 µM and not above 2 µM, respectively. Besides, the 50% cytotoxic concentration (CC50) in series [3] was not above 0.1 µM; in series [4], more than 10 µM. Further, the half-maximal cytotoxic concentration (CC50) at 3 days in series [5] was more than 25 µM. In series [6], the EC50 is not above 0.1 µM.
Take `O=C(c1cc(-c2cc3c(cc2C(=O)N2Cc4ccccc4C[C@H]2CN2CCOCC2)OCO3)n2c1CCCC2)N(Cc1ccccc1C(F)(F)F)c1ccc(O)cc1` [Compound 5, N-(4-hydroxyphenyl)-3-(6-{[(3S)-3-(morpholin-4-ylmethyl)-3,4-dihydroisoquinolin-2(1H)-yl]carbonyl}-1,3-benzodioxol-5-yl)-N-[2-(trifluoromethyl)benzyl]-5,6,7,8-tetrahydroindolizine-1-carboxamide]: the 50% inhibitory concentration (IC50) was not above 0.005 µM in series [1] and not above 2 µM in series [2]. Further, the CC50 in series [3] is not above 0.1 µM; in series [4], 2 to 10 µM. Further, the cytotoxic concentration (CC50) at 3 days in series [5] was more than 25 µM. For the same molecule, the EC50 in series [6] is not above 0.1 µM.
Turning to `O=C(c1cc(-c2cc3c(cc2C(=O)N2Cc4ccccc4C[C@H]2CN2CCOCC2)OCO3)n2c1CCCC2)N(Cc1ccccc1F)c1ccc(O)cc1` [Compound 11, N-(2-fluorobenzyl)-N-(4-hydroxyphenyl)-3-(6-{[(3S)-3-(morpholin-4-ylmethyl)-3,4-dihydroisoquinolin-2(1H)-yl]carbonyl}-1,3-benzodioxol-5-yl)-5,6,7,8-tetrahydroindolizine-1-carboxamide], the cytotoxic concentration (CC50) in series [3] is not above 0.1 µM; in series [4], more than 10 µM. In series [5], the CC50 at 3 days was in the range of 10 to 25 µM. For the same molecule, the EC50 in series [6] was not above 0.1 µM.
With `O=C(c1cc(-c2cc3c(cc2C(=O)N2Cc4ccccc4C[C@H]2CN2CCOCC2)OCO3)n2c1CCCC2)N(Cc1ccc(F)cc1)c1ccc(O)cc1` [Compound 17, N-(4-fluorobenzyl)-N-(4-hydroxyphenyl)-3-(6-{[(3S)-3-(morpholin-4-ylmethyl)-3,4-dihydroisoquinolin-2(1H)-yl]carbonyl}-1,3-benzodioxol-5-yl)-5,6,7,8-tetrahydroindolizine-1-carboxamide], in series [1], the IC50 is 0.01 to 0.05 µM. The CC50 in series [3] was more than 0.2 µM; in series [4] it was more than 10 µM. For the same molecule, in series [5], the half-maximal cytotoxic concentration (CC50) at 3 days is more than 25 µM. Moreover, in series [6], the EC50 is more than 0.25 µM.
As to `CCOc1ccc(-c2nc(CN(C(=O)c3cc(-c4cc5c(cc4C(=O)N4Cc6ccccc6C[C@H]4CN4CCOCC4)OCO5)n4c3CCCC4)c3ccc(O)cc3)c(C)o2)cc1` [Compound 27, N-{[2-(4-ethoxyphenyl)-5-methyl-1,3-oxazol-4-yl]methyl}-N-(4-hydroxyphenyl)-3-(6-{[(3S)-3-(morpholin-4-ylmethyl)-3,4-dihydroisoquinolin-2(1H)-yl]carbonyl}-1,3-benzodioxol-5-yl)-5,6,7,8-tetrahydroindolizine-1-carboxamide], the IC50 was more than 0.05 µM in series [1] and more than 4 µM in series [2].
For `Cc1cc(C(F)(F)F)ccc1CN(C(=O)c1cc(-c2cc3c(cc2C(=O)N2Cc4ccccc4C[C@H]2CN2CCOCC2)OCO3)n2c1CCCC2)c1ccc(O)cc1` [Compound 37, N-(4-hydroxyphenyl)-N-[2-methyl-4-(trifluoromethyl)benzyl]-3-(6-{[(3S)-3-(morpholin-4-ylmethyl)-3,4-dihydroisoquinolin-2(1H)-yl]carbonyl}-1,3-benzodioxol-5-yl)-5,6,7,8-tetrahydroindolizine-1-carboxamide], the IC50 in series [1] lay in the range of 0.005 to 0.01 µM. The CC50 in series [3] is not above 0.1 µM; in series [4], 2 to 10 µM. In addition, the CC50 at 3 days in series [5] is more than 25 µM. In series [6], the EC50 was in the range of 0.1 to 0.25 µM.
Regarding `O=C(c1cc(-c2cc3c(cc2C(=O)N2Cc4ccccc4C[C@H]2CN2CCOCC2)OCO3)n2c1CCCC2)N(Cc1cccnc1)c1ccc(O)cc1` [Compound 39, N-(4-hydroxyphenyl)-3-(6-{[(3S)-3-(morpholin-4-ylmethyl)-3,4-dihydroisoquinolin-2(1H)-yl]carbonyl}-1,3-benzodioxol-5-yl)-N-(pyridin-3-ylmethyl)-5,6,7,8-tetrahydroindolizine-1-carboxamide], the IC50 in series [1] fell in the range of 0.005 to 0.01 µM; in series [2], 2 to 4 µM. Moreover, the 50% cytotoxic concentration (CC50) in series [3] was more than 0.2 µM; in series [4] it was not above 2 µM. In series [5], the CC50 at 3 days was in the range of 10 to 25 µM.
Take `CS(=O)(=O)NC(=O)c1cccc(CN(C(=O)c2cc(-c3cc4c(cc3C(=O)N3Cc5ccccc5C[C@H]3CN3CCOCC3)OCO4)n3c2CCCC3)c2ccc(O)cc2)c1` [Compound 43, N-(4-hydroxyphenyl)-N-{3-[(methylsulfonyl)carbamoyl]benzyl}-3-(6-{[(3S)-3-(morpholin-4-ylmethyl)-3,4-dihydroisoquinolin-2(1H)-yl]carbonyl}-1,3-benzodioxol-5-yl)-5,6,7,8-tetrahydroindolizine-1-carboxamide]: the IC50 in series [1] is 0.005 to 0.01 µM; in series [2], 2 to 4 µM.
Consider `O=C(O)c1cccc(CN(C(=O)c2cc(-c3cc4c(cc3C(=O)N3Cc5ccccc5C[C@H]3CN3CCOCC3)OCO4)n3c2CCCC3)c2ccc(O)cc2)c1` [Compound 45, 3-[(4-Hydroxy-N-[3-[6-[(3S)-3-(morpholinomethyl)-3,4-dihydro-1H-isoquinoline-2-carbonyl]-1,3-benzodioxol-5-yl]-5,6,7,8-tetrahydroindolizine-1-carbonyl]anilino)methyl]benzoic Acid], for which the half-inhibitory concentration (IC50) is 0.01 to 0.05 µM in series [1] and 2 to 4 µM in series [2]. Moreover, the values for the CC50 in series [3] and in series [4] were more than 0.2 µM and more than 10 µM, respectively. Also, in series [5], the cytotoxic concentration (CC50) at 3 days was more than 25 µM.
On the same counts, the results for `O=C(c1cc(-c2cc3c(cc2C(=O)N2Cc4ccccc4C[C@H]2CN2CCOCC2)OCO3)n2c1CCCC2)N(Cc1cccc([N+](=O)[O-])c1)c1ccc(O)cc1` [Compound 49, N-(4-Hydroxyphenyl)-3-[6-[(3S)-3-(morpholinomethyl)-3,4-dihydro-1H-isoquinoline-2-carbonyl]-1,3-benzodioxol-5-yl]-N-[(3-nitrophenyl)methyl]-5,6,7,8-tetrahydroindolizine-1-carboxamide] are more than 0.05 µM, more than 4 µM, more than 0.2 µM, more than 10 µM and more than 25 µM.
